The IC50 is the concentration at which inhibition is half-maximal.

Molecules are shown by their SMILES. Bounds are passed on as bounds.

Among the data in US20260062443A1 (ALEXION PHARMACEUTICALS, INC., priority 2022, published 2026) are IC50 values, retold here.

The experiment has as its target T1, Human complement C1s enzyme (Homo sapiens, UniProt P09871).
T1 sequence (P09871 438-688 limits assumed): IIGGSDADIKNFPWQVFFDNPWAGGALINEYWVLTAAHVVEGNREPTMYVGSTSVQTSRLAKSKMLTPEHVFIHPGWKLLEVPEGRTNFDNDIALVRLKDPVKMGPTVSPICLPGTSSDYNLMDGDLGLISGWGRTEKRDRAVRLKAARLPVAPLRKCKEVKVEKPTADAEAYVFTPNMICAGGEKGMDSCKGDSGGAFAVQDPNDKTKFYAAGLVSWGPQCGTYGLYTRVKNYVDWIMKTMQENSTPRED
T1 sequence (P09871 16-437 partner limits assumed): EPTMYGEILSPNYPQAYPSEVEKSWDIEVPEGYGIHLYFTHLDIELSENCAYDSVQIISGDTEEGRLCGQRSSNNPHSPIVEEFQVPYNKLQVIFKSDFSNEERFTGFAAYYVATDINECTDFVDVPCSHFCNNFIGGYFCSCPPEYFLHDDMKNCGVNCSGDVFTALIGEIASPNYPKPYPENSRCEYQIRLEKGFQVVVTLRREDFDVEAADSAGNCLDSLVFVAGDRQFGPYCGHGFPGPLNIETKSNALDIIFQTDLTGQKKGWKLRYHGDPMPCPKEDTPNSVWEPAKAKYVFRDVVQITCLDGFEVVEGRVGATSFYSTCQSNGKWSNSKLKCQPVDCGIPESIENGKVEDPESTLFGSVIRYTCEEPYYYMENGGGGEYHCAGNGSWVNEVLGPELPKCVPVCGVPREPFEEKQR
The experiment in a line: Human C1s enzyme assay. The note with it: human complement C1s enzyme 1.16 nM, substrate Z-L-Lys-SBzl 100 μM, 5 min preincubation; read-out: IC50 (Stars), C1s Inhibiting Activity. It is filed as biochemical. Summed up:
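IC50 from nonlinear regression of reaction rates versus compound concentration, with rates taken from A405 recorded at 30 s intervals over 30 min after adding 100 μM Z-L-Lys-SBzl plus 100 μM DTNB. Enzyme was human C1s purified from serum, 1.16 nM, given 5 min compound preincubation at room temperature, pH 7.5 Tris/1 M NaCl.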
As for `O=C(NCC(=O)N1CC2(C[C@H]1C(=O)NCc1cc3cnccc3[nH]1)OCCO2)c1ccc2oc3ccccc3c2c1` [Compound 35, (S)-N-((1H-pyrrolo[3,2-c]pyridin-2-yl)methyl)-7-((dibenzo[b,d]furan-2-carbonyl)glycyl)-1,4-dioxa-7-azaspiro[4.4]nonane-8-carboxamide], the IC50 is below 100 nM.

As for `Cc1ccc(Oc2cccc(C(=O)NCC(=O)N3CC4(C[C@H]3C(=O)NCc3cc5cnccc5[nH]3)OCCO4)c2)c(F)c1` [Compound 307, (S)-N-((1H-pyrrolo[3,2-c]pyridin-2-yl)methyl)-7-((3-(2-fluoro-4-methylphenoxy)benzoyl)glycyl)-1,4-dioxa-7-azaspiro[4.4]nonane-8-carboxamide], the IC50 was below 100 nM.

As for `O=C(NCC(=O)N1C[C@H](OC(F)F)C[C@H]1C(=O)NCc1ccc2c(c1)CCN2)c1ccc2c(c1)Oc1ccccc1S2` [Compound 197, (2S,4R)-4-(difluoromethoxy)-N-(indolin-5-ylmethyl)-1-((phenoxathiine-3-carbonyl)glycyl)pyrrolidine-2-carboxamide], the IC50 was above 1000 nM.

For the molecule `C[C@@H](NC(=O)[C@@H]1C[C@@H](S(C)(=O)=O)CN1C(=O)CNC(=O)c1ccc(-c2ccc(F)cc2F)cc1)c1cc2cnccc2[nH]1` [Compound 85, (2S,4R)-N-((R)-1-(1H-pyrrolo[3,2-c]pyridin-2-yl)ethyl)-1-((2′,4′-difluoro-[1,1′-biphenyl]-4-carbonyl)glycyl)-4-(methylsulfonyl)pyrrolidine-2-carboxamide], the 50% inhibitory concentration (IC50) was above 1000 nM.

Turning to `O=C(NCC(=O)N1C[C@H](OC(F)F)C[C@H]1C(=O)NCc1cc2cnccc2s1)c1ccc2c(c1)Oc1ccccc1S2` [Compound 141, (2S,4R)-4-(difluoromethoxy)-1-((phenoxathiine-3-carbonyl)glycyl)-N-(thieno[3,2-c]pyridin-2-ylmethyl)pyrrolidine-2-carboxamide], the IC50 was below 100 nM.

On to `C[C@@H](NC(=O)[C@@H]1C[C@@H](OC(F)F)CN1C(=O)CN1Cc2cc(-c3ccc(F)cc3)ccc2C1=O)c1cc2cnccc2[nH]1` [Compound 101, (2S,4R)-N-((R)-1-(1H-pyrrolo[3,2-c]pyridin-2-yl)ethyl)-4-(difluoromethoxy)-1-(2-(5-(4-fluorophenyl)-1-oxoisoindolin-2-yl)acetyl)pyrrolidine-2-carboxamide], for which the IC50 is below 100 nM.

With `C[C@@]12C[C@@H]1N(C(=O)CNC(=O)c1cccc(Oc3ccc(F)cc3)c1)[C@H](C(=O)NCc1cc3cnccn3c1)C2` [Compound 269, (1S,3S,5S)-2-((3-(4-fluorophenoxy)benzoyl)glycyl)-5-methyl-N-(pyrrolo[1,2-a]pyrazin-7-ylmethyl)-2-azabicyclo[3.1.0]hexane-3-carboxamide], the IC50 was below 100 nM.

Turning to `C[C@@]12C[C@@H]1N(C(=O)CNC(=O)c1cccc(-c3ccccc3)n1)[C@H](C(=O)NCc1cc3cnccc3[nH]1)C2` [Compound 159, (1S,3S,5S)-N-((1H-pyrrolo[3,2-c]pyridin-2-yl)methyl)-5-methyl-2-((6-phenylpicolinoyl)glycyl)-2-azabicyclo[3.1.0]hexane-3-carboxamide], the IC50 is above 1000 nM.

With `C[C@@H](NC(=O)[C@@H]1C[C@@H](C2OCCCO2)CN1C(=O)CNC(=O)c1ccc2c(c1)Oc1ccccc1S2)c1cc2cnccc2[nH]1` [Compound 145, (2S,4R)-N-((R)-1-(1H-pyrrolo[3,2-c]pyridin-2-yl)ethyl)-4-(1,3-dioxan-2-yl)-1-((phenoxathiine-3-carbonyl)glycyl)pyrrolidine-2-carboxamide], the IC50 was below 100 nM.

Regarding `COC[C@@]1(F)C[C@@H](C(=O)N[C@H](C)c2cc3cnccc3[nH]2)N(C(=O)CNC(=O)c2ccc(Oc3ccc(F)cc3)cc2)C1` [Compound 175, (2S,4R)-N-((R)-1-(1H-pyrrolo[3,2-c]pyridin-2-yl)ethyl)-4-fluoro-1-((4-(4-fluorophenoxy)benzoyl)glycyl)-4-(methoxymethyl)pyrrolidine-2-carboxamide], the IC50 is below 100 nM.

Consider `C[C@H]1C[C@@H](C(=O)N[C@H](C)c2cc3cnccc3[nH]2)N(C(=O)CNC(=O)c2ccc3c(c2)-c2ccccc2C3(F)F)C1` [Compound 166, (2S,4S)-N-((R)-1-(1H-pyrrolo[3,2-c]pyridin-2-yl)ethyl)-1-((9,9-difluoro-9H-fluorene-3-carbonyl)glycyl)-4-methylpyrrolidine-2-carboxamide], for which the IC50 is below 100 nM.

`C[C@@H](NC(=O)[C@@H]1C[C@]2(C)C[C@@H]2N1C(=O)CNC(=O)CCCOc1ccccc1)c1cc2cnccc2[nH]1` [Compound 56, (1S,3S,5S)-N-((R)-1-(1H-pyrrolo[3,2-c]pyridin-2-yl)ethyl)-5-methyl-2-((4-phenoxybutanoyl)glycyl)-2-azabicyclo[3.1.0]hexane-3-carboxamide]: the IC50 lay within 100 to 1000 nM.

Take `Cc1nccc2[nH]c(CNC(=O)[C@@H]3C[C@]4(C)C[C@@H]4N3C(=O)CNC(=O)c3ccc4c(c3)Oc3ccccc3S4)cc12` [Compound 267, (1S,3S,5S)-5-methyl-N-((4-methyl-1H-pyrrolo[3,2-c]pyridin-2-yl)methyl)-2-((phenoxathiine-3-carbonyl)glycyl)-2-azabicyclo[3.1.0]hexane-3-carboxamide]: the IC50 is above 1000 nM.

Consider `C[C@@H](NC(=O)[C@@H]1C[C@](F)(CF)CN1C(=O)CNC(=O)c1ccc2c(c1)Oc1ccccc1S2)c1cc2cnccc2[nH]1` [Compound 164, (2S,4R)-N-((R)-1-(1H-pyrrolo[3,2-c]pyridin-2-yl)ethyl)-4-fluoro-4-(fluoromethyl)-1-((phenoxathiine-3-carbonyl)glycyl)pyrrolidine-2-carboxamide], for which the IC50 was below 100 nM.

As for `CCc1ccc(Oc2cc(F)cc(C(=O)NCC(=O)N3C[C@@](F)(Cn4ccnc4)C[C@H]3C(=O)NCc3cc4cnccc4[nH]3)c2)cc1` [Compound 372, (2S,4S)-4-((1H-imidazol-1-yl)methyl)-N-((1H-pyrrolo[3,2-c]pyridin-2-yl)methyl)-1-((3-(4-ethylphenoxy)-5-fluorobenzoyl)glycyl)-4-fluoropyrrolidine-2-carboxamide], the IC50 was below 100 nM.

On to `C[C@@]12C[C@@H]1N(C(=O)CNC(=O)CCCOc1ccccc1)[C@H](C(=O)N[C@@H]1CCN(Cc3c[nH]cn3)C1=O)C2` [Compound 61, (1S,3S,5S)-N-((R)-1-((1H-imidazol-4-yl)methyl)-2-oxopyrrolidin-3-yl)-5-methyl-2-((4-phenoxybutanoyl)glycyl)-2-azabicyclo[3.1.0]hexane-3-carboxamide], for which the IC50 was above 1000 nM.

Turning to `CO[C@@H]1CCN(C(=O)CNC(=O)c2ccc3c(c2)Oc2ccccc2S3)[C@@H]1C(=O)NCc1cc2cnccc2[nH]1` [Compound 285], the IC50 was above 1000 nM.

As to `O=C(NCC(=O)N1C[C@H](OC(F)F)C[C@H]1C(=O)N[C@H](CO)c1cc2cnccc2[nH]1)c1ccc2c(c1)Oc1ccccc1S2` [Compound 93, (2S,4R)-4-(difluoromethoxy)-N-((S)-2-hydroxy-1-(1H-pyrrolo[3,2-c]pyridin-2-yl)ethyl)-1-((phenoxathiine-3-carbonyl)glycyl)pyrrolidine-2-carboxamide], the IC50 was below 100 nM.

For the molecule `CC(C)c1ccc(Oc2cccc(C(=O)NCC(=O)N3C[C@H](OC(F)F)C[C@H]3C(=O)NCc3cc4cnccc4[nH]3)c2)cc1` [Compound 215, (2S,4R)-N-((1H-pyrrolo[3,2-c]pyridin-2-yl)methyl)-4-(difluoromethoxy)-1-((3-(4-isopropylphenoxy)benzoyl)glycyl)pyrrolidine-2-carboxamide], the IC50 was below 100 nM.

In the case of `C[C@@H](NC(=O)C1CSCN1C(=O)CNC(=O)c1ccc2c(c1)Oc1ccccc1S2)c1cc2cnccc2[nH]1` (stereo partly drawn) [Compound 289, N-((R)-1-(1H-pyrrolo[3,2-c]pyridin-2-yl)ethyl)-3-((phenoxathiine-3-carbonyl)glycyl)thiazolidine-4-carboxamide], the IC50 was below 100 nM.

With `Cc1ccc(-c2cnc(C(=O)NCC(=O)N3CC4(C[C@H]3C(=O)N[C@H](C)c3cc5cnccc5[nH]3)OCCO4)c(F)c2)cc1` [Compound 115, (S)-N-((R)-1-(1H-pyrrolo[3,2-c]pyridin-2-yl)ethyl)-7-((3-fluoro-5-(p-tolyl)picolinoyl)glycyl)-1,4-dioxa-7-azaspiro[4.4]nonane-8-carboxamide], the IC50 was above 1000 nM.

Regarding `C[C@@H](NC(=O)[C@@H]1C[C@](F)(CF)CN1C(=O)CNC(=O)c1ccc(-c2ccccc2)cc1)c1cc2cnccc2[nH]1` [Compound 84, (2S,4R)-N-((R)-1-(1H-pyrrolo[3,2-c]pyridin-2-yl)ethyl)-1-(([1,1′-biphenyl]-4-carbonyl)glycyl)-4-fluoro-4-(fluoromethyl)pyrrolidine-2-carboxamide], the IC50 is above 1000 nM.

Consider `C[C@@H](NC(=O)[C@@H]1CC2(CN1C(=O)CNC(=O)c1ccc3c(c1)Oc1ccccc1S3)OCCO2)c1cc2cnccc2s1` [Compound 206, (S)-7-((phenoxathiine-3-carbonyl)glycyl)-N-((R)-1-(thieno[3,2-c]pyridin-2-yl)ethyl)-1,4-dioxa-7-azaspiro[4.4]nonane-8-carboxamide], for which the IC50 was below 100 nM.
